Assay results reported in EPA's ToxRefDB 2.

Legend:
mouse [1] = settings: Developmental neurotoxicity study, other, Oral, Gavage/Intubation, dose end: 147 PND, group: cannot be grouped
rat [2] = settings: Prenatal developmental toxicity study, wistar, Oral, Gavage/Intubation, dose end: 18 GD
mouse [3] = settings: Prenatal developmental toxicity study, cd1, Injection, Subcutaneous, dose end: 16 GD
mouse [4] = settings: Prenatal developmental toxicity study; cd1; Oral; Gavage/Intubation; dose end: 16 GD; group: developmental; developmental / developmental landmark / vaginal opening / vaginal opening + systemic / in life observation / body weight / litter weight + …
mouse [5] = settings: Multigenerational reproductive toxicity study, cd1, Oral, Feed, dose end: 1 generation
mouse [6] = settings: Multigenerational reproductive toxicity study; cd1; Oral; Feed; dose end: 2 generation; group: reproductive; reproductive / reproductive performance / reproductive performance other / NOS + reproductive / reproductive performance / fertility / …
rat [7] = settings: Prenatal developmental toxicity study, other, Oral, Gavage/Intubation, dose end: 15 GD
rat [8] = settings: Subchronic oral toxicity in rodents, other, Gavage/Intubation, dose end: 90 day, group: systemic, systemic / pathology microscopic / stomach / inflammation + systemic / pathology gross / stomach / thickened + systemic / pathology …
rat [9] = settings: Prenatal developmental toxicity study, other, Oral, Gavage/Intubation, dose end: 15 GD; remark: listed apart in the source
[10] = systemic / clinical chemistry / [other] / [other] + systemic / in life observation / clinical signs / [other] + systemic / in life …
[11] = systemic / in life observation / clinical signs / [other] + systemic / in life observation / clinical signs / aggressive behavior
[12] = group: developmental, systemic / in life observation / body weight / offspring (pup) weight + systemic / organ weight / epididymis / absolute + systemic / organ …
[13] = group: maternal, reproductive / reproductive performance / gestational length / gestational length + systemic / in life observation / body weight / body …
[14] = group: developmental, developmental / developmental malformation / general / [other] + developmental / developmental landmark / nipple development / nipple …
[15] = group: maternal, systemic / in life observation / body weight / body weight gain
[16] = group: developmental, developmental / developmental malformation / bone / curled + developmental / developmental malformation / mouth / jaw / cleft palate + …
[17] = group: developmental, developmental / developmental malformation / bone / bent + developmental / developmental malformation / mouth / jaw / cleft palate + …
[18] = group: maternal, systemic / in life observation / body weight / body weight
[19] = group: maternal, systemic / in life observation / body weight / body weight + reproductive / reproductive performance / resorptions / resorptions + systemic…

Structure (SMILES): CC/C(=C(/CC)c1ccc(O)cc1)c1ccc(O)cc1 [Diethylstilbestrol]
- LOAEL (mouse [1]; [10]): > 0.003 mg/kg/day
- NOAEL (mouse [1]; [10]): ≥ 0.003 mg/kg/day
- LEL (mouse [1]; [11]): 0.0003 mg/kg/day
- NEL (mouse [1]; [11]): < 0.0003 mg/kg/day
- LEL (rat [2]; [12]): 0.03 mg/kg/day
- LOAEL (rat [2]; [12]): > 0.03 mg/kg/day
- NEL (rat [2]; [12]): < 0.03 mg/kg/day
- NOAEL (rat [2]; [12]): ≥ 0.03 mg/kg/day
- LEL (rat [2]; [13]): 0.03 mg/kg/day
- LOAEL (rat [2]; [13]): > 0.03 mg/kg/day
- NEL (rat [2]; [13]): < 0.03 mg/kg/day
- NOAEL (rat [2]; [13]): ≥ 0.03 mg/kg/day
- LEL (mouse [3]; [14]): 0.1 mg/kg/day
- LOAEL (mouse [3]; [14]): > 0.1 mg/kg/day
- NEL (mouse [3]; [14]): 0.05 mg/kg/day
- NOAEL (mouse [3]; [14]): ≥ 0.1 mg/kg/day
- LEL (mouse [3]; [15]): 0.0025 mg/kg/day
- LOAEL (mouse [3]; [15]): 0.0025 mg/kg/day
- NEL (mouse [3]; [15]): < 0.0025 mg/kg/day
- NOAEL (mouse [3]; [15]): < 0.0025 mg/kg/day
- LEL (mouse [4]): 0.01 mg/kg/day
- LOAEL (mouse [4]): > 0.01 mg/kg/day
- NEL (mouse [4]): < 0.01 mg/kg/day
- NOAEL (mouse [4]): ≥ 0.01 mg/kg/day
- NOAEL (mouse [5]; group: offspring, systemic / in life observation / body weight / offspring (pup) weight): ≥ 7.5e-09 mg/kg/day
- NOAEL (mouse [5]; group: reproductive, reproductive / reproductive performance / reproductive performance other / NOS + reproductive / reproductive performance / fertility / …): ≥ 7.5e-09 mg/kg/day
- NOAEL (mouse [6]): ≥ 7.5e-09 mg/kg/day

Structure (SMILES): CCC12COCN1COC2 [5-Ethyl-1-aza-3,7-dioxabicyclo[3.3.0]octane]
- LEL (rat [7]; [16]): 650 mg/kg/day
- LOAEL (rat [7]; [16]): 650 mg/kg/day
- NEL (rat [7]; [16]): 250 mg/kg/day
- NOAEL (rat [7]; [16]): 250 mg/kg/day
- LEL (rat [7]; [15]): 650 mg/kg/day
- LOAEL (rat [7]; [15]): 650 mg/kg/day
- NEL (rat [7]; [15]): 250 mg/kg/day
- NOAEL (rat [7]; [15]): 250 mg/kg/day
- LEL (rat [8]): 50 mg/kg/day
- LOAEL (rat [8]): 50 mg/kg/day
- LEL (rat [9]; [17]): 750 mg/kg/day
- LOAEL (rat [9]; [17]): 750 mg/kg/day
- NEL (rat [9]; [17]): 500 mg/kg/day
- NOAEL (rat [9]; [17]): 500 mg/kg/day
- LEL (rat [9]; [18]): 500 mg/kg/day
- LOAEL (rat [9]; [18]): 500 mg/kg/day
- NEL (rat [9]; [19]): 250 mg/kg/day
- NOAEL (rat [9]; [19]): 250 mg/kg/day
